Reference: PubChem BioAssay AID463206 (Broad Institute, 2010)
Activity calls are given as the source filed them.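 How the source made its calls: active means caspase luminescence falls with dose and the half-maximal concentration AC50 from the fitted curve is at or below a set limit; inconclusive means flat fit at 30 to 70% signal loss, or invalid fit; inactive means AC50 above the limit, or signal rises instead.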

Test system: INS-1E cytokine-induced caspase-3/7, Caspase-Glo luminescence, 48 h
Assay: suppression of cytokine-driven beta-cell apoptosis – INS-1E rat cells, luminescence, orthogonal assay for beta-cell apoptosis protection project, dose response (AID 463206)

Structure (SMILES) | AC50
c1ccc(C2(Cn3ccc4ccccc43)OCCO2)cc1 | > 26 µM (inactive)
COc1ccc(C2=Nn3c([n+](C)c4ccccc43)SC2)cc1 | > 26 µM (inactive)
COc1ccc(C(=O)N/N=C(\C)c2ccccn2)cc1OC | > 26 µM (inactive)
Cc1c(C(=O)Nc2nc(-c3ccccn3)cs2)oc2ccccc12 | > 26 µM (inactive)
CCCCC(=O)N1C/C=C\C(c2ccc(OC)cc2)N(Cc2ccc(F)cc2)C(=O)[C@H]1Cc1ccccc1 (stereo partly specified) | > 26 µM (inactive)
COC(=O)[C@@H](Cc1ccccc1)N(Cc1ccccc1)S(=O)(=O)N(Cc1ccccc1)[C@H](Cc1ccccc1)C(=O)OC | > 26 µM (inactive)
CCN1/C(=C/c2cccc[n+]2C)Sc2ccc(OC)cc21 | > 26 µM (inactive)
C=C[C@H](CC(C)C)N(Cc1ccccc1)S(=O)(=O)N(Cc1ccc(OC)cc1)[C@H](C=C)CC(C)C | > 26 µM (inactive)
CCCCCCCCNC(C)C(O)c1ccc(SC(C)C)cc1 (stereo unspecified) | > 26 µM (inactive)
CCCCn1cnc2c(c(-c3ccccc3)c(-c3ccccc3)n2Cc2ccco2)c1=N | > 26 µM (inactive)
CCCCCCC[n+]1ccc(-c2cc[n+](CCCCCCC)cc2)cc1 | > 26 µM (inactive)
Cc1cccc(CNc2ccc(S(=O)(=O)N3CCCCC3)cc2)c1 | > 26 µM (inactive)
Cc1ccc(S(=O)(=O)NCc2ccncc2)c(C)c1C | > 26 µM (inactive)
Cc1ccc(S(=O)(=O)/N=C2\C(=O)c3ccccc3C([O-])=C2n2cc[n+](CCC(C)C)c2)cc1 | > 26 µM (inactive)
Cc1ccc(NS(=O)(=O)c2cc([N+](=O)[O-])ccc2NNC(=S)Nc2cc(C)ccc2C)c(C)c1 | > 26 µM (inactive)
Nc1nc(Cl)cc(N2CCC(c3cc(-c4ccc(Cl)cc4)n[nH]3)CC2)n1 | > 26 µM (inactive)
Oc1ccc(COCc2ccccc2)c2cccnc12 | > 26 µM (inactive)
CCOc1cc(/C=C2\CCC/C(=C\c3cc(Cl)c(O)c(OCC)c3)C2=O)cc(Cl)c1O | 9.51 µM
Fc1ccccc1N=C1NN=C(c2ccccc2)CS1 | > 26 µM (inactive)
N#C/C(N=Nc1ccccc1O)=N\Nc1ccccc1O | > 26 µM (inactive)
COc1ccc(C2C(C#N)=C(N)Oc3c2ccc2cccnc32)cc1OC (stereo unspecified) | > 12 µM (inactive)
Cc1cc(C)c2nc(NNC(=O)c3ccc(S(=O)(=O)N4CCCC(C)C4)cc3)sc2c1 (stereo unspecified) | > 26 µM (inactive)
C#CCOCCOCCOCCNc1nc(N2CCN(C(=O)CCCCCCCCCCNC(=O)[C@H](CCCCN)n3cc(C)nn3)CC2)nc(N2CCN(C(=O)CCCCCCCCCCNC(=O)[C@H](CCCN=C(N)N)n3cc(C[C@@H](C)CC)nn3)CC2)n1 | > 26 µM (inactive)

Structure (SMILES) | AC50
COc1cc(CC(=O)Nc2nc(-c3ccc(F)c(F)c3)cs2)cc(OC)c1OC | > 26 µM (inactive)
CCN(c1ccccc1)S(=O)(=O)c1ccc(C(=O)NC2CCN(Cc3ccccc3)CC2)cc1 | > 26 µM (inactive)
Clc1ccc(-c2[nH]ncc2N=Nc2ccccc2)cc1 | > 26 µM (inactive)
CN(C)c1ccc(/C=C/c2ccc3ccccc3n2)cc1 | > 26 µM (inactive)
COc1ccc(C(C(=O)NC2CCCCC2)N(C(=O)CCl)c2cccc(Cl)c2)cc1 (stereo unspecified) | > 26 µM (inactive)
CCOc1ccc(Nc2cc(C)nc(-n3nc(C)cc3C)n2)cc1 | > 26 µM (inactive)
O=C(Nc1nc(-c2ccccn2)cs1)c1ccc([N+](=O)[O-])o1 | > 26 µM (inactive)
CC(=O)Cc1cc(O)c2ccccc2c1OC(=O)c1ccc(Br)cc1 | > 26 µM (inactive)
CC1=C(C#N)C(C(F)(F)F)(C(F)(F)F)N=C(c2ccco2)N1 | > 26 µM (inactive)
Cc1ccccc1OCCCCn1cnc2ccccc21 | > 12 µM (inactive)
CCOc1ccc(-n2c(=O)[nH]cc(C(=O)Nc3ccc(OC)c(OC)c3)c2=O)cc1 | > 26 µM (inactive)
COC(=O)[C@H](CC(C)C)N(Cc1ccccc1)S(=O)(=O)N(Cc1ccccc1)[C@@H](CC(C)C)C(=O)OC | > 26 µM (inactive)
CC1(C)CC(=O)C2=C(C1)OC1=C(C(=O)CC(C)(C)C1)C2c1ccc(O)cc1O | > 26 µM (inactive)
CCn1c(=NC(=O)c2ccc(S(=O)(=O)N3CCOCC3)cc2)sc2cccc(OC)c21 | > 26 µM (inactive)
CC(=O)C1=C(c2ccc(Br)cc2)C(=O)c2ccccc2C1=O | > 26 µM (inactive)
Cc1nn(C)c(C)c1CN(C)S(=O)(=O)c1ccc2ccccc2c1 | > 26 µM (inactive)
CC[C@@]1(O)C(=O)OCc2c1cc1n(c2=O)Cc2cc3c(N)cccc3nc2-1 | 0.36 µM
CC(C)c1nc(-c2ccccc2)c(-c2ccccc2)[nH]1 | > 26 µM (inactive)
NNC(=S)Nc1ccc(OC(F)(F)F)cc1 | > 26 µM (inactive)
Fc1ccc(-c2cc(-c3nnc4n3CCCCC4)c3ccccc3n2)cc1 | > 26 µM (inactive)
CC(C)CC[n+]1ccn(C2=C([O-])c3ccccc3C(=O)/C2=N\S(=O)(=O)c2ccccc2)c1 | > 26 µM (inactive)
CCC(=O)NC(c1ccc(C)cc1)c1cc([N+](=O)[O-])c2cccnc2c1O (stereo unspecified) | > 26 µM (inactive)
c1ccc(-c2nc(NCc3ccco3)c3ccccc3n2)nc1 | > 26 µM (inactive)
